Test results: patent US20160361255A1, “Peptide Nanotubes for Slow Release of Drugs at Peripheral Nerve Injury” (The University of Toledo, priority 2015, published 2016)

Assays:
[1] = test system: phosphorylated CREB; experiment: Nuclear phospho-CREB immunostaining in PC12 cells; format: cell-based; details: 1 μM, 24 h
Description: (§1) Differentiated PC12 cells and mouse embryonic cortical neurons (E17, DIV14) were treated with mock, dextran, alginate, HA-GAGR or midi-GAGR (1 μM) for 24 h and fixed in 3.7% paraformaldehyde. The fixed cells and neurons were immunostained with antibodies against α-tubulin and phospho-CREB (p-CREB) along with DAPI (nucleus).

[2] = test system: phosphorylated CREB; experiment: Nuclear phospho-CREB immunostaining in cortical neurons; format: cell-based, mouse; details: 1 μM, 24 h
Description: as §1

[3] = test system: rat embryonic cortical neurons; experiment: Scholl ring analysis of cortical neurons exposed to 4-HNE; format: cell-based; details: pretreatment 2 days, then 25 μM 4-HNE 1 day
Description: Rat embryonic cortical neurons were treated with mock (FIG. 11C), 1 μM HA-GAGR (high acyl gellan gum), 1 μM dextran, 100 μM ascorbate or 1 μM midi-GAGR (FIG. 11D) for 2 days and then with 25 μM 4-hydroxynonenal (4-HNE), a lipid peroxide, for 1 day. After fixation, neurons were immunostained with anti-synaptophysin antibody (green) and rhodamine-phalloidin (actin: red). Scholl ring analysis was performed. Neurons pre-treated with mock, dextran or ascorbate lost neuritis (neuritic atrophy) in the presence of 4-HNE.

[4] = test system: differentiated dopaminergic PC12 cells; experiment: LIVE/DEAD viability of differentiated PC12 cells exposed to 6-OHDA; format: cell-based; details: 1 μM for 6 h, then 30 μM 6-OHDA for 24 h
Description: Differentiated dopaminergic PC12 cells and primary mouse embryonic cortical neurons (E17, DIV14) were treated with mock (H2O) or 1 μM of dextran, alginate, HA-GAGR or midi-GAGR for 6 h and insulated by oxidative stressors (30 μM 6-OHDA [PC12] and 10 μM amyloid β peptide [cortical neurons]) for 24 h. The viability of neurons was assessed using LIVE/DEAD Viability/Cytotoxicity Assay Kit (Invitrogen).

[5] = ABTS Antioxidant Assay Kit; format: biochemical; details: 10 μM
Description: The antioxidant capacity of midi-GAGR was measured using ABTS Antioxidant Assay Kit (Zenbio Co.). […] This was slightly stronger than antioxidant capacity of LA-GAGR (10 μM LA-GAGR=15.4 μM Trolox) (Table 2)

[6] = even at high doses (~200 mg/kg); cited from earlier work
[7] = cited from earlier work

| Substance | increase of nuclear p-CREB levels [1] | increase of nuclear p-CREB levels [2] | neurites (neuritic atrophy) in the presence of 4-HNE [3] | 6-OHDA-induced cell death [4] | antioxidant capacity [5] [μM Trolox] | side effects in humans [6] | oral bioavailability [7] |
| --- | --- | --- | --- | --- | --- | --- | --- |
| dextran | not significantly increased | not significantly increased | lost neuritis | did not |  |  |  |
| low acyl gellan gum [LA-GAGR] |  |  |  |  | 15.4 | few side effects | good |
| alginate | not significantly increased | not significantly increased |  | did not |  |  |  |
| high acyl gellan gum [HA-GAGR] | not significantly increased | not significantly increased | formed neuritis, but less branched |  |  |  |  |
